Data on two compounds can be found in patent US20260137710A1, “PHARMACEUTICAL USE OF NUCLEOSIDE COMPOUND” (priority 2022, published 2026).

In one data set the test system is Vaccinia VP13. Description: microbe, parasite or virus in culture. In kind it is cell-based, Vaccinia virus. The following applies: for EC50: Orthopoxvirus vaccinia, HFF-1, 96 h.
In another data set the test system is Monkeypox virus. Description: microbe, parasite or virus in culture. Conditions: for EC50: Monkeypox virus, HFF-1, 96 h. In kind it is cell-based.
The test system of another data set is Cowpox virus. Description: microbe, parasite or virus in culture. It is filed as cell-based. Conditions: for EC50: Cowpox virus, HFF-1, 96 h.
A further data set has as its system Smallpox virus. Description: microbe, parasite or virus in culture. In kind it is cell-based. The following applies: for EC50: Variola virus, HFF-1, 96 h.
The next data set in a line: in vitro. The following applies: human.

As to `O=C(NN1C(=O)[C@@H]2[C@@H]3C=C[C@@H]([C@H]4C[C@@H]34)[C@@H]2C1=O)c1ccc(C(F)(F)F)cc1` [ST-246, reference compound], the EC50 in the data set with Vaccinia VP13 came to 40 nM; in the data set with Monkeypox virus, 30 nM; with Cowpox virus, 50 nM; in the data set with Smallpox virus, 70 nM. In the data set “in vitro”, the CC50 is more than 100000 nM.
As for `[N-]=[N+]=NC1(CO)OC(n2ccc(N)nc2=O)C(F)C1O` (centres unmarked) [Compound 1, Azvudine], in the data set on Vaccinia VP13, the “activity to inhibit vaccinia virus (in words)” value is “significant inhibitory effect” and the midpoint of the response, the EC50, lay at 570 nM. Moreover, in the data set on Monkeypox virus, the “activity to inhibit monkeypox virus (in words)” value is recorded as “significant inhibitory effect” and a half-maximal response (EC50) required 320 nM. In the data set with Cowpox virus, the “activity to inhibit cowpox virus (in words)” value is given as “significant inhibitory effect” and the EC50 was found to be 750 nM. Also, in the data set with Smallpox virus, the “activity to inhibit smallpox virus (in words)” value was “significant inhibitory effect” and the concentration giving a half-maximal response (EC50) amounted to 1200 nM. In the data set “in vitro”, the CC50 is more than 10000 nM.

As a reminder, the EC50 is the concentration giving half of the maximal effect. Read a high EC50 as weaker potency.
